Results as given in US20240091200A1 (Lilac Therapeutics, Inc., priority 2019, published 2024).
Where “and” joins values, the source holds several entries; their conditions need not be identical. Identical values can stand only once. Like-named read-outs stand apart in the source and are kept apart here.

Legend:
[1] = Plasma pharmacokinetics after an oral dose of Example 2 in SD rats; assay type: in vivo, Sprague Dawley rats; details: for bioavailability: oral
Experimental: An oral dose of Example 2 was formulated in a sterile solution of 50% water, 37.5% PEG 300, and 12.5% DMSO at 1.0 mg/mL. The dosing group consisted of three fasted male Sprague Dawley rats. At dosing, the animals weighed between 0.26 and 0.27 kg. For the oral dosing group, the formulated dose was administered via oral gavage at 5.0 mL/kg for a dose of 5.0 mg/kg. Non-compartmental pharmacokinetic analysis was performed on the plasma concentration-time data.

[2] = Plasma pharmacokinetics of Example 68 after IV infusion or PO dose in SD rats; assay type: in vivo
[3] = Example 68 in plasma, PO dose of Example 2 5 mg/kg, individual rats
[4] = male, Sprague Dawley, rat, plasma, po, 5 mg/kg, Example 68 in plasma, PO dose of Example 2 5 mg/kg, individual rats
[5] = male, Sprague Dawley, rat, plasma, po, 5 mg/kg, Example 68 in plasma, PO dose of Example 2 5 mg/kg, mean n=3
[6] = 30-minute IV infusion 1 mg/kg, individual rats
[7] = 30-minute IV infusion 1 mg/kg, mean n=3
[8] = PO dose 5 mg/kg, individual rats
[9] = SD, rat, plasma, po, 5 mg/kg, PO dose 5 mg/kg, mean n=3
[10] = Sprague-Dawley (SD), rat, plasma, iv, 1 mg/kg, 30-minute IV infusion 1 mg/kg, individual rats
[11] = Sprague-Dawley (SD), rat, plasma, iv, 1 mg/kg, 30-minute IV infusion 1 mg/kg, mean n=3

In the case of `NC(=O)c1ccc(-c2ccc(-c3nn[nH]c3C(=O)O)cc2)cc1` [Example 68, 4-(4carbamoyl-[1,1biphenyl]-4-yl)-1H-1,2,3-triazole-5-carboxylic acid], the “F (bioavailability)” value ([1]; Example 68 after PO Example 2 5 mg/kg, based on IV exposure of Example 68 at 1.0 mg/kg, individual rats) is reported as 20.2% and 17.4%, the AUC0-24 h [1, 3] is reported as 3.36 µM·h and 2.93 µM·h and the AUCinf [1, 3] is reported as 3.45 µM·h and 2.98 µM·h. For the same compound, the Cmax [1, 3] was 2220 nM and 2450 nM, the Tmax [1, 3] was 15 min and the AUCinf ([1]; Example 68 in plasma, PO dose of Example 2 5 mg/kg, mean n=3) was 3.25 µM·h. The bioavailability ([1]; male, Sprague Dawley, rat, plasma, 5 mg/kg, Example 68 after PO Example 2 5 mg/kg, based on IV exposure of Example 68 at 1.0 mg/kg, individual rats, read-out: F (bioavailability)) was 19.4%, the bioavailability ([1]; male, Sprague Dawley, rat, plasma, 5 mg/kg, Example 68 after PO Example 2 5 mg/kg, based on IV exposure of Example 68 at 1.0 mg/kg, mean n=3, read-out: F (bioavailability)) was 19 ± 1.4% and the AUC(0-inf) [1, 4] was 3.32 µM·h. The Cmax [1, 4] was 2120 nM, the AUC(0-t) ([1]; male, Sprague Dawley, rat, plasma, po, 5 mg/kg, Example 68 in plasma, PO dose of Example 2 5 mg/kg, individual rats, read-out: AUC0-24 h) was 3.15 µM·h and the Tmax ([1]; male, Sprague Dawley, rat, plasma, po, 5 mg/kg, Example 68 in plasma, PO dose of Example 2 5 mg/kg, individual rats, read-out: Tmax) was 30 min. It also gave an AUC(0-inf) [1, 5] of 3.25 ± 0.242 µM·h, a Cmax [1, 5] of 2270 ± 171 nM and an AUC(0-t) ([1]; male, Sprague Dawley, rat, plasma, po, 5 mg/kg, Example 68 in plasma, PO dose of Example 2 5 mg/kg, mean n=3, read-out: AUC0-24 h) of 3.14 µM·h. The Tmax ([1]; male, Sprague Dawley, rat, plasma, po, 5 mg/kg, Example 68 in plasma, PO dose of Example 2 5 mg/kg, mean n=3, read-out: Tmax) was 25.2 min, the AUCinf [2, 6] was 3.11 µM·h and 3.46 µM·h and the AUClast [2, 6] was 3.09 µM·h and 3.45 µM·h. The “CL (apparent systemic clearance)” value [2, 6] was 17.3 mL/min/kg and 15.5 mL/min/kg, the Cmax [2, 6] was 5100 nM and 5350 nM and the “MRT (mean residence time)” value [2, 6] was 29.4 min and 26.4 min. For the same compound, the “Vss (volume of distribution)” value [2, 6] was 0.51 L/kg, the “t1/2 (terminal)” value [2, 6] was 64.8 min and 57.6 min and the “CL (apparent systemic clearance)” value [2, 7] was 15.8 mL/min/kg. For the same compound, the “t1/2 (terminal)” value [2, 7] was 61.2 min, the AUCinf [2, 8] was 0.383 µM·h and 0.479 µM·h and the AUClast [2, 8] was 0.334 µM·h and 0.396 µM·h. The Cmax [2, 8] was 90.4 nM and 65 nM and 182 nM, the “F (oral bioavailability)” value [2, 8] was 1.9% and the Tmax [2, 8] was 0.25 hr (2×) and 2.00 hr. The AUC(0-inf) ([2]; SD, rat, plasma, po, 5 mg/kg, PO dose 5 mg/kg, individual rats) was 0.485 µM·h, the AUC(0-inf) [2, 9] was 0.449 µM·h and the Cmax [2, 9] was 113 nM. For the same compound, the AUC(0-inf) [2, 10] was 3.69 µM·h, the AUC(0-t) [2, 10] was 3.68 µM·h and the Cmax [2, 10] was 4940 nM. It also gave a clearance ([2]; Sprague-Dawley (SD), rat, plasma, iv, 1 mg/kg, 30-minute IV infusion 1 mg/kg, individual rats, read-out: CL (apparent systemic clearance) (converted)) of 14.5 mL/min/kg, an MRT ([2]; Sprague-Dawley (SD), rat, plasma, iv, 1 mg/kg, 30-minute IV infusion 1 mg/kg, individual rats, read-out: MRT (mean residence time)) of 28.2 min and a Vd ([2]; Sprague-Dawley (SD), rat, plasma, iv, 1 mg/kg, 30-minute IV infusion 1 mg/kg, individual rats, read-out: Vss (volume of distribution)) of 0.41 L/kg. For the same compound, the half-life ([2]; Sprague-Dawley (SD), rat, plasma, iv, 1 mg/kg, 30-minute IV infusion 1 mg/kg, individual rats, read-out: t1/2 (terminal) (converted)) was 60.6 min, the AUC(0-inf) [2, 11] was 3.42 µM·h and the AUC(0-t) [2, 11] was 3.4 µM·h. For the same compound, the Cmax [2, 11] was 5130 nM, the clearance ([2]; Sprague-Dawley (SD), rat, plasma, iv, 1 mg/kg, 30-minute IV infusion 1 mg/kg, mean n=3, read-out: CL (apparent systemic clearance) (converted)) was 15.8 mL/min/kg and the MRT ([2]; Sprague-Dawley (SD), rat, plasma, iv, 1 mg/kg, 30-minute IV infusion 1 mg/kg, mean n=3, read-out: MRT (mean residence time)) was 28.2 ± 1.2 min. The Vd ([2]; Sprague-Dawley (SD), rat, plasma, iv, 1 mg/kg, 30-minute IV infusion 1 mg/kg, mean n=3, read-out: Vss (volume of distribution)) was 0.44 ± 0.06 L/kg, the half-life ([2]; Sprague-Dawley (SD), rat, plasma, iv, 1 mg/kg, 30-minute IV infusion 1 mg/kg, mean n=3, read-out: t1/2 (terminal) (converted)) was 61.2 ± 3.6 min and the AUC(0-t) ([2]; Sprague-Dawley (SD), rat, plasma, po, 5 mg/kg, PO dose 5 mg/kg, individual rats) was 0.429 µM·h. It also gave a bioavailability ([2]; Sprague-Dawley (SD), rat, plasma, po, 5 mg/kg, PO dose 5 mg/kg, individual rats, read-out: F (oral bioavailability)) of 2.5%, an AUC(0-t) ([2]; Sprague-Dawley (SD), rat, plasma, po, 5 mg/kg, PO dose 5 mg/kg, mean n=3) of 0.386 µM·h and a bioavailability ([2]; Sprague-Dawley (SD), rat, plasma, po, 5 mg/kg, PO dose 5 mg/kg, mean n=3, read-out: F (oral bioavailability)) of 2.3%. The Tmax ([2]; Sprague-Dawley (SD), rat, plasma, po, 5 mg/kg, PO dose 5 mg/kg, mean n=3, read-out: Tmax) was 49.8 min.
